The first assay deals with T1, human NaV sodium channel α-subunit NaV 1.8 (Homo sapiens, UniProt Q9Y5Y9).
T1 construct: transfected with the full-length cDNA coding for the appropriate human NaV sodium channel α-subunit NaV 1.8; expressed in transfected cells; host or cells: HEK293 cells
T1 sequence (Q9Y5Y9 whole entry): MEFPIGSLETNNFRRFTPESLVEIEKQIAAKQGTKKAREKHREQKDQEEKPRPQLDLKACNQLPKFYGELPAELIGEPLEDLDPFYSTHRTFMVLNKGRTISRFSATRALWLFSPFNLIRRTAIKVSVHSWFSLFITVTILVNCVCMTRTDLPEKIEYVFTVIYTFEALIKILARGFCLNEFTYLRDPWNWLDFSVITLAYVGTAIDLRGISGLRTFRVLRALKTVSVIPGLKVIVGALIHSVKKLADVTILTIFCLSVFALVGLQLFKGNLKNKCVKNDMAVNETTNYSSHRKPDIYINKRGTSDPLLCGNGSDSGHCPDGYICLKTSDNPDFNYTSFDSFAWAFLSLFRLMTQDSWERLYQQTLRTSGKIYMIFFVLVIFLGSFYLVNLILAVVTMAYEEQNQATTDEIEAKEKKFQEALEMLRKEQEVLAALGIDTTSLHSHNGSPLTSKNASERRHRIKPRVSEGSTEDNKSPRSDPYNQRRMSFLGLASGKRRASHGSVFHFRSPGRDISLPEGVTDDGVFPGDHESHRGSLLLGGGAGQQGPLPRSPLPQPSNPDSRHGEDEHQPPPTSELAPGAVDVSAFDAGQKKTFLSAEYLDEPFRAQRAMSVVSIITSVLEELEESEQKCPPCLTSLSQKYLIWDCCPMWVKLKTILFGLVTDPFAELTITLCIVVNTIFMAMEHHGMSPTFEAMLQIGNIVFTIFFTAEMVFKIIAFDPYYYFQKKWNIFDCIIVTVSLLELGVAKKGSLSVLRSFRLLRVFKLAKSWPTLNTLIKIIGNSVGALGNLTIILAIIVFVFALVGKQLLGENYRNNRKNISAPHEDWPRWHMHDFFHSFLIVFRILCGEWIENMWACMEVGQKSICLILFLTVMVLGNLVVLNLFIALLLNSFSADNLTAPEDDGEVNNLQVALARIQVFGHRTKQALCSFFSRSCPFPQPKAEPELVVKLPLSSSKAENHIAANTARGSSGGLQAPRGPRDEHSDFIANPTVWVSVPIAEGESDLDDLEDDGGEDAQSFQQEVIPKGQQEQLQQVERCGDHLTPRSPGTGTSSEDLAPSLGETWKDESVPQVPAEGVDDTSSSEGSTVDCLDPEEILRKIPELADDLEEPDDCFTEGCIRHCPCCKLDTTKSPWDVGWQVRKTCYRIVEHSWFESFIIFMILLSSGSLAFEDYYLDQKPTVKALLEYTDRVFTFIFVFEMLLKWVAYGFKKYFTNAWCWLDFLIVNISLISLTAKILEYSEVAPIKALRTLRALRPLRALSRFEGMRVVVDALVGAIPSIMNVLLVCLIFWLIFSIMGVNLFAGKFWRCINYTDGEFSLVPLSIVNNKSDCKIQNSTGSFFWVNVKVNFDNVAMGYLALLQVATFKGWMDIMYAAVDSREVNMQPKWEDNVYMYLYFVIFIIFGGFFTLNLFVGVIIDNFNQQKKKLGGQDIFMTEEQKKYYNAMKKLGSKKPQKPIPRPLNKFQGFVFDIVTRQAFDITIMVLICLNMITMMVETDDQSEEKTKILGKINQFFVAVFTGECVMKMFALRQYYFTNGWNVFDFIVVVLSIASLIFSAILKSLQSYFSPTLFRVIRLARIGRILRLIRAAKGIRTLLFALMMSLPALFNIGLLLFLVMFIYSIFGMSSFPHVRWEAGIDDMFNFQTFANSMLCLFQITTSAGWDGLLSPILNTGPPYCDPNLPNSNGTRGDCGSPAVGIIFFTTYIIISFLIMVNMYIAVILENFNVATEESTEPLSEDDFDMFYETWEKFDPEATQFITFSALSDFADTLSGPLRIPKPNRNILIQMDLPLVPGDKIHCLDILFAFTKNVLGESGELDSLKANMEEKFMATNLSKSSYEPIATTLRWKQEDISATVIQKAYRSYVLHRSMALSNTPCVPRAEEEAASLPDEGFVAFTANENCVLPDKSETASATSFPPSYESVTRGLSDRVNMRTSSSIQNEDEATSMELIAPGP
In words: NaV inhibition assay, whole-cell patch-clamp (HEKA EPC 9 amplifier). The format is cell-based.
Conditions: not given
On the procedure: Electrophysiology experiments were performed on Human Embryonic Kidney 293 cells (HEK) or Chinese hamster ovary cells (CHO) transfected with the full-length cDNA coding for the appropriate human NaV sodium channel α-subunit NaV 1.8. Similarly, experiments are performed on Human Embryonic Kidney 293 cells (HEK) or Chinese hamster ovary cells (CHO) transfected with the full-length cDNA coding for the appropriate human NaV sodium channel α-subunit, including NaV 1.7, NaV 1.6, NaV 1.5, and NaV 1.4.
Sodium currents were measured using the patch-clamp technique in the whole-cell configuration with a HEKA EPC 9 amplifier (HEKA Elektronik Dr. Schulze GmbH, Germany) or can be measured using an IonFlux 16 automated patch clamp system (Fluxion Biosciences, South San Francisco, USA) as previously described by Moran. See, Moran O, Picollo A, Conti F (2003) Tonic and phasic guanidinium toxin-block of skeletal muscle Na channels expressed in Mammalian cells, Biophys J 84(5):2999-3006. For manual patch-clamp experiments, borosilicate glass micropipettes (Sutter Instruments, Novato, CA) were pulled to a tip diameter yielding a resistance of 1.0-2.0 MΩ in the working solutions. The composition of intracellular solution was (in mM): CsF 125, EGTA 10, HEPES 10, NaCl 10, and the pH was adjusted to 7.2 with CsOH. The composition of extracellular solution was (in mM): NaCl 135, KCl 4.5, CaCl2 2, MgCl2 1, HEPES 10, and the pH was adjusted to 7.4 with NaOH. For human NaV 1.8, 0.3-1 μM tetrodotoxin (TTX) was added to the extracellular solution to inhibit native TTX-sensitive current. Peak currents were generally between 0.5-20 nA.
Lyophilized stock of each test article was stored at −20° C., solubilized in DMSO (maximum final concentration 1%) and diluted to the desired concentration with the external solution prior to recording. Current measurements were recorded under continuous perfusion, controlled by syringe pump addition.
The output of the EPC 9 patch-clamp amplifier was filtered with a built-in low-pass, four-pole Bessel filter having a cutoff frequency of 10 kHz and sampled at 20-50 kHz. For both manual and automated recordings, the membrane was kept at a holding potential of between −120 and −80 mV. Pulse stimulation and data acquisition were controlled with the Pulse software (HEKA Elektronik Dr. Schulze GmbH, Germany) or the IonFlux software (Fluxion Biosciences, South San Francisco, USA). All measurements were performed at room temperature (about 20-22° C.). Recordings were made at least 5 min after establishing the whole-cell and voltage-clamp configuration to allow for stabilization of the voltage-dependent properties of the channels. Currents were elicited by 10-50 ms step depolarizations from a holding potential to a value between −40 and +10 mV. Peak currents after channel activation were recorded. […] Data were fit to a four-parameter logistic equation with the Hill slope set to 1 to determine IC50 values and expressed as mean.
For Table 1 and Table 2, all data were measured in HEK cells. Column 1 provides IC50 data for NaV 1.8 as measured using the patch-clamp technique in the whole-cell configuration with a HEKA EPC 9 amplifier, where +++ indicates an IC50 of less than or equal to 20 nM, ++ indicates an IC50 of greater than 20 nM but less that or equal to 100 nM, and + indicates an IC50 of greater than 100 nM but less that or equal to […]. ND means not detectable. NT means not tested.
For orientation: The patch-clamp technique gives a direct electrical read-out from membranes.
On to `NS(=O)(=O)c1cccc(NC(=O)c2cc3cc(C(F)(F)F)ccc3nc2N2CCCC(F)(F)CC2)c1` [Compound 17], for which the IC50 was < 20 nM. In the case of `CC1CN(c2nc3ccccc3cc2C(=O)Nc2cccc(S(N)(=O)=O)c2)CCC1(F)F` (stereo not drawn) [Compound 5, 2-(4,4-difluoro-3-methylpiperidin-1-yl)-N-(3-sulfamoylphenyl)quinoline-3-carboxamide], the 50% inhibitory concentration (IC50) is < 20 nM. As for `Nc1noc2ccc(NC(=O)c3cc4ccccc4nc3N3CCCC(F)(F)CC3)cc12` [Compound 3, N-(3-aminobenzo[d]isoxazol-5-yl)-2-(4,4-difluoroazepan-1-yl)quinoline-3-carboxamide], the 50% inhibitory concentration (IC50) is < 20 nM. Compound `COc1ccc2cc(C(=O)Nc3cccc(S(N)(=O)=O)c3)c(N3CCCC(F)(F)CC3)nc2c1` [Compound 16, 2-(4,4-difluoroazepan-1-yl)-7-methoxy-N-(3-sulfamoylphenyl)quinoline-3-carboxamide] returned a 50% inhibitory concentration (IC50) of 20 to 100 nM. On the same count and under the same terms, the figure for `NS(=O)(=O)c1cccc(NC(=O)c2cc3cnccc3nc2N2CCCC(F)(F)CC2)c1` [Compound 20, 2-(4,4-difluoroazepan-1-yl)-N-(3-sulfamoylphenyl)-1,6-naphthyridine-3-carboxamide] is 20 to 100 nM; for `NS(=O)(=O)c1cccc(NC(=O)c2cc3ccc(Cl)cc3nc2N2CCCC(F)(F)CC2)c1` [Compound 13, 7-chloro-2-(4,4-difluoroazepan-1-yl)-N-(3-sulfamoylphenyl)quinoline-3-carboxamide] it is 20 to 100 nM; for `NS(=O)(=O)c1cccc(NC(=O)c2cc3cc(F)ccc3nc2N2CCCC(F)(F)CC2)c1` [Compound 9, 2-(4,4-difluoroazepan-1-yl)-6-fluoro-N-(3-sulfamoylphenyl)quinoline-3-carboxamide] it is 20 to 100 nM. As to `CS(=O)(=O)c1cccc(NC(=O)c2nc3ccccc3nc2N2CCCC(F)(F)CC2)c1` [Compound 6, 3-(4,4-difluoroazepan-1-yl)-N-(3-methanesulfonylphenyl)quinoxaline-2-carboxamide], the IC50 is < 20 nM. For the compound `NS(=O)(=O)c1cccc(NC(=O)c2cc3cc(Cl)ccc3nc2N2CCCC(F)(F)CC2)c1` [Compound 12, 6-chloro-2-(4,4-difluoroazepan-1-yl)-N-(3-sulfamoylphenyl)quinoline-3-carboxamide], the IC50 was < 20 nM. On to `NS(=O)(=O)c1cccc(NC(=O)c2cc3ccccc3nc2N2CCCC(F)(F)CC2)c1` [Compound 2, 2-(4,4-difluoroazepan-1-yl)-N-(3-sulfamoylphenyl)quinoline-3-carboxamide], for which the half-maximal inhibitory concentration (IC50) was < 20 nM. `CS(=N)(=O)c1cccc(NC(=O)c2nc3ccccc3nc2N2CCCC(F)(F)CC2)c1` (stereo not drawn) [Compound 7, 3-(4,4-difluoroazepan-1-yl)-N-(3-(S-methylsulfonimidoyl)phenyl)quinoxaline-2-carboxamide] returned an IC50 of 20 to 100 nM. Same read-out and setting: to `NS(=O)(=O)c1cccc(NC(=O)c2cc3c(nc2N2CCCC(F)(F)CC2)CCCC3)c1` [Compound 18, 2-(4,4-difluoroazepan-1-yl)-N-(3-sulfamoylphenyl)-5,6,7,8-tetrahydroquinoline-3-carboxamide] belongs 20 to 100 nM. `NS(=O)(=O)c1cccc(NC(=O)c2cc3cc(F)c(F)cc3nc2N2CCCC(F)(F)CC2)c1` [Compound 10, 2-(4,4-difluoroazepan-1-yl)-6,7-difluoro-N-(3-sulfamoylphenyl)quinoline-3-carboxamide] returned an IC50 of 20 to 100 nM. As to `NC(=O)c1cccc(NC(=O)c2cc3ccccc3nc2N2CCCC(F)(F)CC2)c1` [Compound 4, N-(3-carbamoylphenyl)-2-(4,4-difluoroazepan-1-yl)quinoline-3-carboxamide], the IC50 is < 20 nM.

For the compound `CS(=N)(=O)c1cccc(NC(=O)c2cc3ccccc3nc2N2CCCC(F)(F)CC2)c1` (stereo not drawn) [Compound 1, 2-(4,4-difluoroazepan-1-yl)-N-(3-(S-methylsulfonimidoyl)phenyl)quinoline-3-carboxamide], the half-maximal inhibitory concentration (IC50) is < 20 nM. In the case of `NS(=O)(=O)c1cccc(NC(=O)c2cc3ccc(F)cc3nc2N2CCCC(F)(F)CC2)c1` [Compound 28, 2-(4,4-difluoroazepan-1-yl)-7-fluoro-N-(3-sulfamoylphenyl)quinoline-3-carboxamide], the 50% inhibitory concentration (IC50) was < 20 nM. In the case of `NS(=O)(=O)c1cccc(NC(=O)c2cc3ccncc3nc2N2CCCC(F)(F)CC2)c1` [Compound 15, 2-(4,4-difluoroazepan-1-yl)-N-(3-sulfamoylphenyl)-1,7-naphthyridine-3-carboxamide], the IC50 was < 20 nM. Take `NS(=O)(=O)c1cccc(NC(=O)c2nc3ccccc3nc2N2CCCC(F)(F)CC2)c1` [Compound 8, 3-(4,4-difluoroazepan-1-yl)-N-(3-sulfamoylphenyl)quinoxaline-2-carboxamide]: the IC50 lay in the range of 20 to 100 nM. As to `COc1ccc2nc(N3CCCC(F)(F)CC3)c(C(=O)Nc3cccc(S(N)(=O)=O)c3)cc2c1` [Compound 11, 2-(4,4-difluoroazepan-1-yl)-6-methoxy-N-(3-sulfamoylphenyl)quinoline-3-carboxamide], the IC50 was < 20 nM. Still for that read-out and setting: the figure for `NC(=O)c1cccc(NC(=O)c2nc3ccccc3nc2N2CCCC(F)(F)CC2)c1` [Compound 14, N-(3-carbamoylphenyl)-3-(4,4-difluoroazepan-1-yl)quinoxaline-2-carboxamide] is 20 to 100 nM.

The same assay, now with this note: HEK cells transfected with human NaV 1.8; whole-cell patch-clamp; 0.3-1 μM TTX in extracellular solution; room temperature.
With `NS(=O)(=O)c1cccc(NC(=O)c2cc3cccnc3nc2N2CCCC(F)(F)CC2)c1` [Compound 19, 2-(4,4-difluoroazepan-1-yl)-N-(3-sulfamoylphenyl)-1,8-naphthyridine-3-carboxamide], the “NaV1.8 IC50 (nM)” value is reported as “+ (+ indicates an IC50 of greater than 100 nM but less that or equal to 1.5 M)”.

The term IC50 denotes the point on the concentration scale where inhibition reaches its midpoint. A lower IC50 goes with greater potency.

(Values after patent US20260242356A1, “BICYCLIC HETEROCYCLIC AMIDE INHIBITORS OF NAv1.8 FOR THE TREATMENT OF PAIN” (priority 2022, published 2026).)
